Assay results taken from patent publication US20230242616A1, “CHEMOKINE-SELECTIVE CXCR4 ECTODOMAIN-DERIVED (POLY)PEPTIDE” (Ludwig-Maximilians-Universität München, priority 2020, published 2023).
pIC50, pKd: −log10 of the molar value. “Also recorded” adds a separate entry of the source. Where two headings read alike, the source gives them in different places. Where a SMILES comes first, the peptide text is derived from it. [ ]: non-standard residue; d: D form. 12Ado = NCCCCCCCCCCCC(=O)O; Aoc = NCCCCCCCC(=O)O; Ahx = NCCCCCC(=O)O; AEA = NCCOCC(=O)O

How the values were obtained:
CXCL12 = molecular target: T1, CXCL12 (Homo sapiens, UniProt P48061); assay: Fluorescence spectroscopic titration, binding to CXCL12
T1 construct: purchased Peprotech (or a gift of Dr. von Hundelshausen, LMU Munich)
T1 sequence (P48061 22-93): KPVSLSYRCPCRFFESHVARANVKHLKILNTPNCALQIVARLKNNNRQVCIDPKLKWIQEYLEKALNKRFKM
Method: (§1) Fluorescence spectroscopy. Fluorescence spectroscopic titrations were performed as described^28, 32. Fluorescence spectra were recorded using a JASCO FP-6500 fluorescence spectrophotometer. […] Apparent KD values (app. KD) were calculated assuming a 1/1 binding model^32.

[1] = system: primary human monocyte-derived macrophages; assay: Dil-LDL uptake / foam cell formation, MIF-mediated; type: cell-based
Method: Dil-LDL uptake/foam cell formation. […] After washing with imaging solution (MEM without phenol red containing 30 mM HEPES, 0.5 g/L NaHCO3, pH 7.4, and 0.2% BSA), cells were exposed to 50 μg/mL 1,1′-dioctadecyl-3,3,3′3′-tetra-methylindocarbocyanine-labeled LDL (Dil-LDL) for 30 min at 4° C. followed by incubation at 37° C. for 20 min. Cells were washed with ice-cold imaging solution (pH 3.5), fixed, and counter-stained with Hoechst 33258.

MIF = molecular target: T2, MIF (Homo sapiens, UniProt P14174); assay: Fluorescence spectroscopic titration, binding to MIF
T2 construct: made in house
T2 sequence (P14174 2-115): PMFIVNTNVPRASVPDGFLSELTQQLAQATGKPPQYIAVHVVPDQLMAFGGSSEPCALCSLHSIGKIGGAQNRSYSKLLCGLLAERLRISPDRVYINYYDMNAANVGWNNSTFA
Method: as §1

[2] = Solubility / biophysical properties of next generation mimics
[3] = system: primary mouse spleen B lymphocytes; assay: Transwell chemotaxis of B cells elicited by MIF; type: cell-based; conditions: 16 nM MIF
Method: Chemotaxis analysis of murine B cells. A Transwell-based assay was used as described previously^34. Briefly, splenic B cells were isolated by negative depletion using a Pan B Cell Isolation Kit (Miltenyi Biotec. Bergisch Gladbach, Germany). Purity of the cells was between 95 and 99%. […] Chemotaxis was followed for 4 h at 37° C. in a humidified atmosphere of 5% CO2. Migrated cells were counted by flow cytometry using CountBright™ Absolute Counting Beads (Molecular Probes-Invitrogen).

[4] = system: human monocyte-derived macrophages; conditions: read-out: IC50 of MIF-triggered Dil-oxLDL uptake; lower threshold of effect size roughly 50%
human monocytes = assay: 3D migration of monocytes elicited by MIF (time-lapse microscopy); type: cell-based
Description: Isolation of human peripheral blood-derived monocytes. Human peripheral blood-derived monocytes were isolated as described^14. Briefly, blood was collected from healthy donors or buffy coat obtained from the blood bank of Munich University Hospital, mixed 1:1 with PBS, and PBMCs isolated by Ficoll-Paque Plus gradient (GE Healthcare). Monocytes were purified by negative depletion using the Monocyte Isolation Kit II (Miltenyi). Monocyte purity was verified by flow cytometry using an anti-CD14 antibody (Miltenyl) and was 95-98%. […] The isolation of PBMCs from donor blood was approved by the local ethics committee of LMU Munich. 3D migration of human peripheral blood-derived monocytes by time-lapse microscopy. The 3D-migration behavior of human monocytes was assessed by time-lapse microscopy and individual cell tracking using the 3D chemotaxis μ-Slide system from Ibidi GmbH (Munich, Germany), adapting the established Ibidi dendritic cell protocol for human monocytes. […] Cell motility was monitored performing time-lapse imaging every 1 min at 37° C. for 2 h using a Leica inverted DMi8-Life Cell Imaging System equipped with a DMC2900 Digital Microscope Camera with CMOS sensor and live cell-imaging software (Leica Microsystems, Wetzlar, Germany). Images were imported as stacks to ImageJ software and analyzed with the manual tracking and chemotaxis/migration tools (Ibidi GmbH).

[5] = Estimated solubility index by CD spectroscopy; type: physicochemical
Method: Circular dichroism (CD) spectroscopy. […] Far-UV CD measurements were carried out between 195 and 250 nm. The response time was set at 1 s, intervals at 0.1 nm, and bandwidth at 1 nm. All spectra were measured at RT and represent an average of three recorded spectra. Scans were recorded for the ectodomain mimic peptides at a concentration of 1-20 μM in 10 mM sodium phosphate buffer, pH 7.4, containing 1% HFIP, following dilution of freshly made peptide stock solution in HFIP (4° C.) into the buffer-containing cuvette. […] The background spectrum of buffer/1% HFIP alone was subtracted from the spectra of the peptides.

[6] = Alexa-488-MIF/ngm app. Kd (±SD), aqueous 1 × b, pH 7.4, 1% HFIP
[7] = Fluos-ngm/MIF app. Kd (±SD), aqueous 1 × b, pH 7.4, 1% HFIP
[8] = read-out: Alexa-488-MIF/ngm app. Kd (±SD), aqueous 1 × b, pH 7.4, 1% HFIP

Compound | binding to CXCL12 (in words) (CXCL12) | Atherogenic inhibitory activity (Dil-LDL uptake) [1] | solubility properties (in words) [2] | pKd (MIF; [8]) | Estimated solubility index by CD spectroscopy [5] | other results
CC(C)C[C@H](NC(=O)[C@H](CC(=O)O)NC(=O)[C@H](CC(N)=O)NC(=O)[C@@H]1CCCN1C(=O)[C@H](Cc1ccc(O)cc1)NC(=O)[C@H](Cc1ccccc1)NC(=O)[C@H](CCCNC(=N)N)NC(=O)[C@H](CC(=O)O)NC(=O)CCCCCCCNC(=O)[C@H](CCCCN)NC(=O)[C@H](CS)NC(=O)[C@H](CC(C)C)NC(=O)[C@H](Cc1ccccc1)NC(=O)[C@H](CC(N)=O)NC(=O)CNC(=O)[C@H](Cc1ccccc1)NC(=O)[C@H](Cc1ccc(O)cc1)NC(=O)[C@@H](N)Cc1c[nH]c2ccccc12)C(=O)N[C@@H](Cc1c[nH]c2ccccc12)C(N)=O [msR4M-L4] (H-WYFGNFLCK[Aoc]DRFYPNDLW-NH2) | essentially no binding affinity for CXCL12 | 80% of % of full-length msR4M-L1 | less favorable solubility properties |  |  | pKd (MIF; [6]): 7.36; pKd (MIF; [7]): 7.92
CC(C)C[C@H](NC(=O)[C@H](CC(=O)O)NC(=O)[C@H](CC(N)=O)NC(=O)[C@@H]1CCCN1C(=O)[C@H](Cc1ccc(O)cc1)NC(=O)[C@H](Cc1ccccc1)NC(=O)[C@H](CCCNC(=N)N)NC(=O)[C@H](CC(=O)O)NC(=O)CCCCCCCCCCCNC(=O)CCCCCNC(=O)[C@H](CCCCN)NC(=O)[C@H](CS)NC(=O)[C@H](CC(C)C)NC(=O)[C@H](Cc1ccccc1)NC(=O)[C@H](CC(N)=O)NC(=O)CNC(=O)[C@H](Cc1ccccc1)NC(=O)[C@H](Cc1ccc(O)cc1)NC(=O)[C@@H](N)Cc1c[nH]c2ccccc12)C(=O)N[C@@H](Cc1c[nH]c2ccccc12)C(N)=O [msR4M-L3] (H-WYFGNFLCK[Ahx][12Ado]DRFYPNDLW-NH2) | essentially no binding affinity for CXCL12 | 80% of % of full-length msR4M-L1 | less favorable solubility properties | 7.93 |  | pKd (MIF; read-out: Binding affinity (fluorescence spectroscopic titration) Kd, Table 7, reconnected short mimics): 7.85; pKd (MIF; read-out: Fluos-ngm/MIF app. Kd (±SD), aqueous 1 × b, pH 7.4, 1% HFIP): 7.35
CC(C)C[C@H](NC(=O)[C@H](CC(=O)O)NC(=O)[C@H](CC(N)=O)NC(=O)[C@@H]1CCCN1C(=O)[C@H](Cc1ccc(O)cc1)NC(=O)[C@H](Cc1ccccc1)NC(=O)[C@H](CCCNC(=N)N)NC(=O)[C@H](CC(=O)O)NC(=O)CNC(=O)CNC(=O)CNC(=O)[C@H](CCCCN)NC(=O)[C@H](CS)NC(=O)[C@H](CC(C)C)NC(=O)[C@H](Cc1ccccc1)NC(=O)[C@H](CC(N)=O)NC(=O)CNC(=O)[C@H](Cc1ccccc1)NC(=O)[C@H](Cc1ccc(O)cc1)NC(=O)[C@@H](N)Cc1c[nH]c2ccccc12)C(=O)N[C@@H](Cc1c[nH]c2ccccc12)C(N)=O [msR4M-LG3] |  |  |  | < 5.30 |  | 
CC[C@H](C)[C@H](NC(=O)[C@H](Cc1ccc(O)cc1)NC(=O)[C@H](CCCNC(=N)N)NC(=O)[C@H](CC(=O)O)NC(=O)CCCCCCCCCCCNC(=O)COCCOCCNC(=O)[C@H](CCCCN)NC(=O)[C@H](CS)NC(=O)[C@H](CC(C)C)NC(=O)[C@H](Cc1ccccc1)NC(=O)[C@H](CC(N)=O)NC(=O)CNC(=O)[C@H](Cc1ccccc1)NC(=O)[C@H](Cc1ccc(O)cc1)NC(=O)[C@H](Cc1c[nH]c2ccccc12)NC(=O)[C@H](CC(N)=O)NC(=O)[C@H](C)NC(=O)[C@@H](NC(=O)[C@H](C)NC(=O)[C@@H](N)CC(=O)O)C(C)C)C(=O)N[C@@H](CS)C(=O)N[C@@H](CC(=O)O)C(=O)N[C@@H](CCCNC(=N)N)C(=O)N[C@@H](Cc1ccccc1)C(=O)N[C@@H](Cc1ccc(O)cc1)C(=O)N1CCC[C@H]1C(=O)N[C@@H](CC(N)=O)C(=O)N[C@@H](CC(=O)O)C(=O)N[C@@H](CC(C)C)C(=O)N[C@@H](Cc1c[nH]c2ccccc12)C(=O)N[C@H](C(N)=O)C(C)C [msR4M-L2] |  |  |  |  |  | inhibition of MIF-mediated B-cell chemotaxis [3]: inhibits MIF-triggered B-lymphocyte chemotaxis; also recorded: fully blocked
H-WYFGNFLCKDDDDRFYPNDLW-NH2 [msR4M-LD3] | essentially no binding propensity for CXCL12 |  | performing most superior | 6.61 | >2× compared to × compared to msR4M-L1 | pIC50 [4]: 8.85; effect on MIF-triggered 3D monocyte migration (human monocytes): inhibit the MIF-mediated monocytes migration; pIC50 (human monocytes; 3D migration, one experiment, read-out: IC50 of MIF-mediated monocyte migration): 7.74
H-WYFGNFLCKKKKDRFYPNDLW-NH2 [msR4M-LK3] | good binding affinity for CXCL12 |  | very good solubility properties |  |  | 
H-WYFGNFLCKRRRDRFYPNDLW-NH2 [msR4M-LR3] | good binding affinity for CXCL12 |  | very good solubility properties |  | >2× compared to × compared to msR4M-L1 | 
CC(C)C[C@H](NC(=O)[C@H](CC(=O)O)NC(=O)[C@H](CC(N)=O)NC(=O)[C@@H]1CCCN1C(=O)[C@H](Cc1ccc(O)cc1)NC(=O)[C@H](Cc1ccccc1)NC(=O)[C@H](CCCNC(=N)N)NC(=O)[C@H](CC(=O)O)NC(=O)COCCNC(=O)COCCNC(=O)[C@H](CCCCN)NC(=O)[C@H](CS)NC(=O)[C@H](CC(C)C)NC(=O)[C@H](Cc1ccccc1)NC(=O)[C@H](CC(N)=O)NC(=O)CNC(=O)[C@H](Cc1ccccc1)NC(=O)[C@H](Cc1ccc(O)cc1)NC(=O)[C@@H](N)Cc1c[nH]c2ccccc12)C(=O)N[C@@H](Cc1c[nH]c2ccccc12)C(N)=O [msR4M-L5] (H-WYFGNFLCK[AEA][AEA]DRFYPNDLW-NH2) | essentially no binding propensity for CXCL12 | 30% of % of full-length msR4M-L1 | favorable biophysical properties such as solubility |  | >2× compared to × compared to msR4M-L1 | pIC50 [4]: 7.16; effect on MIF-triggered 3D monocyte migration (human monocytes): inhibit the MIF-mediated monocytes migration; pKd (MIF; [6]): 7.38; pKd (MIF; Binding affinity (fluorescence spectroscopic titration) Kd, Table 8, mimics with enhanced solubility): 7.40 to 7.52; pKd (MIF; [7]): 7.84
